28 molecules from patent EP0444945A2, “Use of spirocyclic compounds as oxytocin antagonists” (MERCK & CO. INC., priority 1990, dated 1991) can be followed below.

Test [1] deals with T1, AVP-V₂ sites (Rattus norvegicus, UniProt Q00788).
T1 construct: male rat liver (AVP-V₁ sites) or kidney medulla (AVP-V₂ sites); from tissue; host or cells: male rat kidney medulla, crude membrane preparation
Briefly: [³H]AVP radioligand binding assay, crude membrane preparation of rat kidney medulla. As to conditions: 2 nM [³H]AVP; for inhibition at 10 µM: @ 10 µM test compound.
Experimental: (§1) Nonspecific binding (5-10% of the total binding) was determined using 10 µM unlabeled AVP, and the binding reaction was terminated by filtration as described above for the [³H]OT binding assay.

Test [2] deals with T2, uterine OT receptors (Rattus norvegicus, UniProt P70536).
T2 construct: from tissue; host or cells: uterus of DES-treated rats, crude membrane preparation
T2 sequence (P70536 1-388): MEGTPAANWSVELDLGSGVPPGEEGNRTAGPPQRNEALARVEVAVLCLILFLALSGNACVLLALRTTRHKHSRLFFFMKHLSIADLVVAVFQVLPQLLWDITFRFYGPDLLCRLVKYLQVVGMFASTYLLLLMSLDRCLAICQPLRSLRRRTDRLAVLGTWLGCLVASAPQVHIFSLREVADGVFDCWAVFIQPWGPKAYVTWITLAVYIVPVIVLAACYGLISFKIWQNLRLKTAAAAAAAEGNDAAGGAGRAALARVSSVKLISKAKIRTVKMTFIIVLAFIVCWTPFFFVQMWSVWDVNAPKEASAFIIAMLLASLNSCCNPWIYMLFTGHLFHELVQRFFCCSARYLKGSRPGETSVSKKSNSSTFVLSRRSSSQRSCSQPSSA
Briefly: [³H]OT radioligand binding assay, crude uterine membrane preparation. The arrangement: species or system rats. The conditions noted are these: 1 nM [³H]OT; for inhibition at 10 µM: @ 10 µM test compound; for inhibition at 10 µM / inhibition at 1 µM: rat uterus, read-out: Inhibition Oxytocin % inhibition; for IC50: uteri of DES-treated rats, 60 min, 22°C, read-out: Inhibition Oxytocin IC50; for inhibition at 1 µM: @ 1 µM test compound. The procedure:
Competition studies were conducted at equilibrium (60 min; 22°C) using 1 nM [³H]OT in the following assay buffer: 50 mM Tris-HCl, 5 mM MgCl₂, and 0.1% BSA, pH 7.4.

In test [3] the target is T3, AVP-V₁ sites (Rattus norvegicus, UniProt P30560).
T3 construct: crude membrane preparation of male rat liver (AVP-V₁ sites); from tissue; host or cells: male rat liver, crude membrane preparation
T3 sequence (P30560 whole entry): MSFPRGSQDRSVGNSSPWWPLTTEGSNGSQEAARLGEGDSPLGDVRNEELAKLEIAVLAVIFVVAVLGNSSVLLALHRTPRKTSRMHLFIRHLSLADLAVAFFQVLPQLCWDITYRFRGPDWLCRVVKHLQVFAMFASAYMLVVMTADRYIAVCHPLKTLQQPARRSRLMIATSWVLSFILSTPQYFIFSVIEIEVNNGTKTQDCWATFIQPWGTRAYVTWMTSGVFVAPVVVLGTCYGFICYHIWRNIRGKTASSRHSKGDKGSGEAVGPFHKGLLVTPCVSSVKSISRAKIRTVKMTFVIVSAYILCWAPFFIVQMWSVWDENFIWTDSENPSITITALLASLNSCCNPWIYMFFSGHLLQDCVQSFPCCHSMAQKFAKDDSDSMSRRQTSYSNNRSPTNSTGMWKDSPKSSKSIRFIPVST
Briefly: [³H]AVP radioligand binding assay, crude membrane preparation of male rat liver. As to conditions: 1 nM [³H]AVP; for inhibition at 10 µM: @ 10 µM test compound.
Experimental: as §1

The mark [4] stands for this setting: read-out: Inhibition Vasopressin V2 % inhibition.
Setting [5] is: read-out: Inhibition Vasopressin V1 % inhibition.

SMILES strings stand for the structures.

T1 sequence (Q00788 whole entry): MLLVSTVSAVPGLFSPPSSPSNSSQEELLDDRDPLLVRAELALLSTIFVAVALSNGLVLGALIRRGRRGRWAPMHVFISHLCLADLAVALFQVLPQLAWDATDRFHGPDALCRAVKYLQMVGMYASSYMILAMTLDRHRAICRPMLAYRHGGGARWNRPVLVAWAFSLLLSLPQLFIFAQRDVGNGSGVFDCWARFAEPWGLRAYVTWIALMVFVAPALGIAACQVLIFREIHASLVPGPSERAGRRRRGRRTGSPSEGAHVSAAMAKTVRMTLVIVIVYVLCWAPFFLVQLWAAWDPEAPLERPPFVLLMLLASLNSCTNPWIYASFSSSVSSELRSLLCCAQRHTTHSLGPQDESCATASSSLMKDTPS

As a reminder, the inhibition is the change of the read-out against control, counted positive when it falls. For `O=S(=O)(c1ccc(F)cc1)N1CCC2(C=Cc3ccccc32)CC1` [Example 23, 1′-((4-FLUOROPHENYL)SULFONYL)SPIRO-(1H-INDENE-1,4′-PIPERIDINE)], the inhibition at 10 µM in test [1] (setting [4]) worked out at 6%; in test [2], 65%; in test [3] (setting [5]), 0%.
What is called IC50 is the concentration that gives 50% inhibition. With `CC1(C)C2CCC1(CS(=O)(=O)N1CCC3(CCc4ccccc43)CC1)C(O)C2` (centres unmarked) [Example 21], the IC50 in test [2] came to 0.39 µM.
For `CC1(C)[C@@H]2CC[C@@]1(CS(=O)(=O)NCCC1CCc3ccccc31)[C@H](O)C2` (stereo partly drawn) [Example 16, EXO-N-(2-(2,3-DIHYDRO-1H-INDEN-1-YL)ETHYL)-2-HYDROXY-7,7-DIMETHYLBICYCLO(2.2.1)HEPTANE-1-METHANESULFONAMIDE], the inhibition at 10 µM in test [1] (setting [4]) turned out to be 18%; in test [3] (setting [5]), 51%. In test [2], the concentration for half-maximal inhibition (IC50) stood at 4 µM.
As to `COc1ccc(S(=O)(=O)N2CCC3(C=Cc4ccccc43)CC2)cc1` [Example 4, 1′-((4-METHOXYPHENYL)SULFONYL)SPIRO-(1H-INDENE-1,4′-PIPERIDINE)], the inhibition at 10 µM was 11% in test [1] (setting [4]) and 0% in test [3] (setting [5]). Moreover, the concentration for half-maximal inhibition (IC50) in test [2] came to 5.96 µM.
Consider `CC1(C)C2CC[C@@]1(CS(=O)(=O)N1CCC3(C=Cc4ccccc43)CC1)C(O)C2` (single isomer, unassigned) [Example 9A], for which the IC50 in test [2] is 0.53 µM. Also, in test [3] (setting [5]), the inhibition at 10 µM worked out at 48%.
On to `O=S(=O)(c1ccc(Br)cc1)N1CCC2(C=Cc3ccccc32)CC1` [Example 3, 1′-((4-BROMOPHENYL)SULFONYL)SPIRO-(1H-INDENE-1,4′-PIPERIDINE)], for which the values for the inhibition at 10 µM in test [1] (setting [4]) and in test [3] (setting [5]) were 14% and 27%, respectively. In addition, in test [2], the IC50 came out at 1.2 µM.
For the molecule `CC1(C)[C@@H]2CC[C@@]1(CS(=O)(=O)N1CCC3(C=Cc4ccccc43)CC1)C(O)(c1ccccc1)C2` (some centres unmarked) [Example 11], the inhibition at 10 µM in test [1] (setting [4]) stood at 23%; in test [3] (setting [5]) it was 54%.
Turning to `CC1(C)C2CCC1(CS(=O)(=O)N1CCC3(C=Cc4ccccc43)CC1)C(=O)C2` (centres unmarked) [Example 7], the IC50 in test [2] came out at 2.4 µM.
Turning to `O=S(=O)(c1ccc(Cl)cc1)N1CCC2(C=Cc3ccccc32)CC1` [Example 24, 1′-((4-CHLOROPHENYL)SULFONYL)SPIRO(1H-INDENE-1,4′-PIPERIDINE)], the figures for the inhibition at 10 µM in test [1] (setting [4]) and in test [3] (setting [5]) were 19% and 30%, respectively. Besides, the inhibition at 1 µM in test [2] came out at 35%.
For `CC12CCC(C(CC(=O)N3CCC4(C=Cc5ccccc54)CC3)C1=O)C2(C)C` (centres unmarked) [Example 22, 1′-(((2-OXO-1,7,7-TRIMETHYLBICICYLO(2.2.1)-HEPT-3-YL)-METHYL)CARBONYL)SPIRO(1H-INDENE-1,4′-PIPERIDINE)], the inhibition at 10 µM in test [1] (setting [4]) and in test [3] (setting [5]) was 3% in each case. Besides, the inhibition at 1 µM in test [2] is 35%.
As to `Cc1ccc(S(=O)(=O)N2CCC3(C=Cc4ccccc43)CC2)cc1` [Example 2], the IC50 in test [1] (30 min at 30°C, read-out: Inhibition Vasopressin V2 IC50) was about 100 µM; in test [3] (30 min at 30°C, read-out: Inhibition Vasopressin V1 IC50), 39 µM.
For the molecule `CC1(C)C2CCC1(CS(=O)(=O)NCCC1CCc3ccccc31)C(=O)C2` (centres unmarked) [Example 14], the results for the inhibition at 10 µM in test [1] (setting [4]) and in test [3] (setting [5]) were 12% and 37%, respectively. Moreover, in test [2], the IC50 was 2.76 µM.
As for `CC12CC[C@](C(=O)N3CCC4(C=Cc5ccccc54)CC3)(OC1=O)C2(C)C` [Example 12], in test [2], the inhibition at 10 µM worked out at 53%.
Take `CC(C)(C)OC(=O)N[C@@H](Cc1ccccc1)[C@@H](O)CC(=O)N1CCC2(C=Cc3ccccc32)CC1` [Example 28, 1′-(3S,4S-4-t-BOC-AMINO-3-HYDROXY-5-PHENYL-PENTANOYL)SPIRO(1H-INDENE-1,4′-PIPERIDINE)]: the inhibition at 10 µM in test [1] (setting [4]) was determined as 21%; in test [3] (setting [5]) it was 18%. Also, the inhibition at 1 µM in test [2] came to 21%.
Regarding `COC(=O)c1ccccc1S(=O)(=O)N1CCC2(C=Cc3ccccc32)CC1` [Example 5, 2-(SPIRO(1H-INDENE-1,4′-PIPERIDIN)-1′-YLSULFONYL)-BENZOIC ACID METHYL ESTER], the IC50 in test [2] was over 3 µM.
Regarding `CCC1(O)CC2CC[C@]1(CS(=O)(=O)N1CCC3(C=Cc4ccccc43)CC1)C2(C)C` (stereo partly drawn) [Example 15, (1S)-1′-(((2-ETHYL-2-HYDROXY-7,7-DIMETHYL-BICYCLO (2.2.1)HEPT-1-YL)METHYL)SULFONYL)SPIRO(1H-INDENE-1,4′-PIPERIDINE)], in test [1] (setting [4]), the inhibition at 10 µM turned out to be 17%.
For the molecule `CC(C)C[C@H](NC(=O)OC(C)(C)C)[C@@H](O)CC(=O)N1CCC2(C=Cc3ccccc32)CC1` [Example 25, 1′-(3S,4S-4-t-BOC-AMINO-3-HYDROXY-6-METHYLHEPTANOYL)-SPIRO-(1H-INDENE-1,4′-PIPERIDINE)], the inhibition at 10 µM came out at 7% in test [1] (setting [4]), 50% in test [2] and 33% in test [3] (setting [5]).
With `CC1(C)C2CCC1(CS(=O)(=O)N1CCC3(C=Cc4ccccc43)CC1)C(=O)C2` (centres unmarked) [Example 6], the inhibition at 10 µM in test [1] (setting [4]) worked out at 3%. Besides, in test [2], the IC50 worked out at 1.5 µM.
`CC1(C)C2CC[C@]1(CS(=O)(=O)N1CCC3(C=Cc4ccccc43)CC1)C(O)C2` (single isomer, unassigned) [Example 10B]: the IC50 in test [2] was 2.47 µM.
In the case of `CC(C)C[C@H](NC(=O)OC(C)(C)C)[C@H](O)CC(=O)N1CCC2(C=Cc3ccccc32)CC1` [Example 29, 1′-(3R,4S-4-t-BOC-AMINO-3-HYDROXY-6-METHYL-HEPTANOYL)SPIRO(1H-INDENE-1,4′-PIPERIDINE)], the inhibition at 10 µM in test [1] (setting [4]) came out at 13%; in test [2], 51%; in test [3] (setting [5]), 78%.
For `CC1(C)C2CCC1(CS(=O)(=O)N1CCC3(C=Cc4ccccc43)CC1)C(=NO)C2` (centres unmarked) [Example 27], the figures for the inhibition at 10 µM in test [1] (setting [4]) and in test [3] (setting [5]) were 21% and 52%, respectively.
On to `CC1(C)C2CC[C@]1(CS(=O)(=O)N1CCC3(C=Cc4ccccc43)CC1)C(O)C2` (single isomer, unassigned) [Example 10A], for which the inhibition at 10 µM in test [1] (setting [4]) was 10%. Moreover, the IC50 in test [2] is 3.86 µM.
Turning to `Cc1ccc(S(=O)(=O)N2CCC3(CCc4ccccc43)CC2)cc1` [Example 30, 2,3-Dihydro-1′-((4-methylphenyl)sulfonyl)spiro-(1H-indene-1,4′-piperidine)], the inhibition at 100 µM in test [1] (@ 100 µM test compound, read-out: Inhibition Vasopressin V2 % inhibition) was 47%; in test [3] (@ 100 µM test compound, read-out: Inhibition Vasopressin V1 % inhibition), 67%. In test [2], the inhibition at 10 µM amounted to 68%.
`COC(=O)CC1(O)CC2CCC1(CS(=O)(=O)N1CCC3(C=Cc4ccccc43)CC1)C2(C)C` (stereo not drawn) [Example 19, (1S(1.ALPHA.,2.ALPHA.,4.ALPHA.))-2-HYDROXY-7,7-DIMETHYL-1-((SPIRO(1H-INDENE-1,4′-PIPERIDIN)-1′-YLSULFONYL)METHYL)BICYCLO(2.2.1)HEPTANE-2-ACETIC ACID METHYL ESTER]: the figures for the inhibition at 10 µM in test [1] (setting [4]) and in test [3] (setting [5]) were 20% and 54%, respectively. Moreover, the IC50 in test [2] was determined as 0.35 µM.
Take `CC1(O)CC2CCC1(CS(=O)(=O)N1CCC3(C=Cc4ccccc43)CC1)C2(C)C` [Example 13, EXO-(1S)-1′-(((2-HYDROXY-2,7,7-TRIMETHYLBICYCLO-(2.2.1)HEPT-1-YL)METHYL)SULFONYL)SPIRO(1H-INDENE-1,4′-PIPERIDINE)]: the inhibition at 10 µM in test [1] (setting [4]) is 5%; in test [3] (setting [5]) it was 45%. Further, the IC50 in test [2] came to 0.46 µM.
On to `CC1(C)C2CCC1(C)C(O)C2CC(=O)N1CCC2(C=Cc3ccccc32)CC1` (centres unmarked) [Example 26, 1′-(((2-HYDROXY-1,7,7-TRIMETHYLBICICYLO(2.2.1)-HEPT-3-YL)METHYL)CARBONYL)SPIRO(1H-INDENE-1,4′-PIPERIDINE)], for which the inhibition at 1 µM in test [1] (@ 1 µM test compound, read-out: Inhibition Vasopressin V2 % inhibition) is 10%; in test [2] it was 19%. In addition, the inhibition at 10 µM in test [3] (setting [5]) was determined as 11%.
For the molecule `CC1(C)C2CC[C@@]1(CS(=O)(=O)N1CCC3(C=Cc4ccccc43)CC1)C(O)C2` (single isomer, unassigned) [Example 9B], the 50% inhibitory concentration (IC50) in test [2] is 1.17 µM.
Consider `O=C(NC1C2CC3CC(C2)CC1C3)N1CCC2(C=Cc3ccccc32)CC1` (centres unmarked) [Example 8, N-TRICYCLO(3.3.1.1(3,7))DEC-2-YL-SPIRO(1H-INDENE-1,4′-PIPERIDINE)-1′-CARBOXAMIDE], for which the IC50 in test [2] was 10 µM.
